In US3960877A, “N-monosubstituted-2,3-pyridinedicarboxamides, and related compounds” (priority 1974, dated 1976):

How the values were obtained:
Type in all cases: in vivo
Alfalfa [1] = experiment: Preemergence herbicidal activity, % control of plant growth; conditions: for pest or weed control at 17933.6 g/ha: Medicago sativa, pre-emergence, 504 h, 16 lb/acre, about 3 weeks
Source text: (§1) By "preemergence" is meant that the compound is applied to the soil prior to emergence of the weed species sought to be controlled. This term, as used herein, also means the application of the herbicidal compounds falling within the scope of this disclosure to areas wherein useful or desirable plants are either growing or have been sown, but where the undesirable plants sought to be controlled have not as yet emerged.
(§2) In using the compound, seeds of the types of plants set forth in Table II were sown in fresh soil. In the preemergence test the soil was sprayed with a solution of the test compound immediately after the seeds were planted, and before any noticeable growth developed. The solution was about a 2 percent by weight solution of the compound in acetone and/or alcohol. The compound was applied at the rate of 16 pounds per acre of soil surface.
(§3) Approximately 3 weeks after spray application, the herbicidal activity of the compound was determined by visual observation of the treated area in comparison with untreated control areas. These observations are reported below in Table II wherein the average activity rating is reported as the percent control of plant growth.
(§4) *Preemergence test: compound applied at rate of 16 lb/acre

Barnyard Grass [2] = experiment: as above; conditions: Echinochloa crus-galli, pre-emergence, 504 h; barnyard grass; 16 lb/acre; about 3 weeks
Source text: as §1, §2, §3, §4

Cheatgrass [3] = experiment: as above; conditions: for pest or weed control at 17933.6 g/ha: Bromus tectorum, pre-emergence, 504 h, 16 lb/acre, about 3 weeks
Source text: as §1, §2, §3, §4

Chickweed [4] = experiment: as above; conditions: for pest or weed control at 17933.6 g/ha: pre-emergence, 504 h, 16 lb/acre, about 3 weeks
Source text: as §1, §2, §3, §4

Corn [5] = experiment: as above; conditions: for plant injury at 17933.6 g/ha: Zea mays, pre-emergence, 504 h, 16 lb/acre, about 3 weeks
Source text: as §1, §2, §3, §4

Crabgrass [6] = experiment: as above; conditions: for pest or weed control at 17933.6 g/ha: Digitaria sanguinalis, pre-emergence, 504 h, 16 lb/acre, about 3 weeks
Source text: as §1, §2, §3, §4

Cucumber [7] = experiment: as above; conditions: for pest or weed control at 17933.6 g/ha: Cucumis sativus, pre-emergence, 504 h, 16 lb/acre, about 3 weeks
Source text: as §1, §2, §3, §4

Curled Dock [8] = experiment: as above; conditions: for pest or weed control at 17933.6 g/ha: pre-emergence, 504 h, 16 lb/acre, about 3 weeks
Source text: as §1, §2, §3, §4

Foxtail [9] = experiment: as above; conditions: Setaria, pre-emergence, 504 h, 16 lb/acre, about 3 weeks
Source text: as §1, §2, §3, §4

Johnsongrass [10] = experiment: as above; conditions: Sorghum halepense, pre-emergence, 504 h, 16 lb/acre, about 3 weeks
Source text: as §1, §2, §3, §4

Lambsquarters [11] = experiment: as above; conditions: for pest or weed control at 17933.6 g/ha: Chenopodium album, pre-emergence, 504 h, 16 lb/acre, about 3 weeks
Source text: as §1, §2, §3, §4

Nutgrass [12] = experiment: as above; conditions: pre-emergence, 504 h, 16 lb/acre, about 3 weeks
Source text: as §1, §2, §3, §4

Pigweed [13] = experiment: as above; conditions: for pest or weed control at 17933.6 g/ha: Amaranthus retroflexus, pre-emergence, 504 h, 16 lb/acre, about 3 weeks
Source text: as §1, §2, §3, §4

Snapbeans [14] = experiment: as above; conditions: for pest or weed control at 17933.6 g/ha: pre-emergence, 504 h, 16 lb/acre, about 3 weeks
Source text: as §1, §2, §3, §4

Velvetleaf [15] = experiment: as above; conditions: Abutilon theophrasti, pre-emergence, 504 h, 16 lb/acre, about 3 weeks
Source text: as §1, §2, §3, §4

Wild Oats [16] = experiment: as above; conditions: Avena fatua, pre-emergence, 504 h, 16 lb/acre, about 3 weeks
Source text: as §1, §2, §3, §4

Yellow Rocket [17] = experiment: as above; conditions: pre-emergence, 504 h, 16 lb/acre, about 3 weeks
Source text: as §1, §2, §3, §4

Alfalfa [18] = experiment: Postemergence herbicidal activity, % control of plant growth; conditions: Medicago sativa, post-emergence, 264 h, 8 lb/acre, about 11 days
Source text: (§5) By the term "postemergence" is meant that the compound is applied to the plant sought to be controlled after it has emerged from the soil surface. This term is also used to describe the application of herbicidally active compounds to soil surface in and around growing plants sought to be controlled for purposes of effecting root absorption by the undesirable plant species.
(§6) In the postemergence test the soil and developing plants were sprayed approximately 2 weeks after the seeds were sown. The compound was applied at the rate of 8 pounds per acre from about a 2 percent by weight solution of the test compound in acetone and/or alcohol. The postemergence herbicidal activity was measured in the same way as the preemergence activity; i.e. visual observation approximately 11 days after spraying, and expressed as the percent control of plant growth.
(§7) **Postemergence test: compound applied at rate of 8 lb/acre

Barnyard Grass [19] = experiment: as above; conditions: Echinochloa crus-galli, post-emergence, 264 h, 8 lb/acre, about 11 days
Source text: as §5, §6, §7

Cheatgrass [20] = experiment: as above; conditions: Bromus tectorum, post-emergence, 264 h, 8 lb/acre, about 11 days
Source text: as §5, §6, §7

Chickweed [21] = experiment: as above; conditions: post-emergence, 264 h, 8 lb/acre, about 11 days
Source text: as §5, §6, §7

Corn [22] = experiment: as above; conditions: Zea mays, post-emergence, 264 h, 8 lb/acre, about 11 days
Source text: as §5, §6, §7

Crabgrass [23] = experiment: as above; conditions: Digitaria sanguinalis, post-emergence, 264 h, 8 lb/acre, about 11 days
Source text: as §5, §6, §7

Cucumber [24] = experiment: as above; conditions: Cucumis sativus, post-emergence, 264 h, 8 lb/acre, about 11 days
Source text: as §5, §6, §7

Curled Dock [25] = experiment: as above; conditions: post-emergence, 264 h, 8 lb/acre, about 11 days
Source text: as §5, §6, §7

Foxtail [26] = experiment: as above; conditions: Setaria, post-emergence, 264 h, 8 lb/acre, about 11 days
Source text: as §5, §6, §7

Johnsongrass [27] = experiment: as above; conditions: Sorghum halepense, post-emergence, 264 h, 8 lb/acre, about 11 days
Source text: as §5, §6, §7

Lambsquarters [28] = experiment: as above; conditions: Chenopodium album, post-emergence, 264 h, 8 lb/acre, about 11 days
Source text: as §5, §6, §7

Nutgrass [29] = experiment: as above; conditions: post-emergence, 264 h, 8 lb/acre, about 11 days
Source text: as §5, §6, §7

Pigweed [30] = experiment: as above; conditions: Amaranthus retroflexus, post-emergence, 264 h, 8 lb/acre, about 11 days
Source text: as §5, §6, §7

Snapbeans [31] = experiment: as above; conditions: post-emergence, 264 h, 8 lb/acre, about 11 days
Source text: as §5, §6, §7

Velvetleaf [32] = experiment: as above; conditions: Abutilon theophrasti, post-emergence, 264 h, 8 lb/acre, about 11 days
Source text: as §5, §6, §7

Wild Oats [33] = experiment: as above; conditions: Avena fatua, post-emergence, 264 h, 8 lb/acre, about 11 days
Source text: as §5, §6, §7

Yellow Rocket [34] = experiment: as above; conditions: post-emergence, 264 h, 8 lb/acre, about 11 days
Source text: as §5, §6, §7

SMILES: C=CCn1c(=O)[nH]c2cccnc2c1=O [3-allyl-pyrido[3,2-d]pyrimidine-2,4(1H,3H)-dione]
- pest or weed control at 17933.6 g/ha (Alfalfa [1]): 100%
- pest or weed control at 17933.6 g/ha (Barnyard Grass [2]): 90%
- pest or weed control at 17933.6 g/ha (Cheatgrass [3]): 100%
- pest or weed control at 17933.6 g/ha (Chickweed [4]): 100%
- plant injury at 17933.6 g/ha (Corn [5]): 50%
- pest or weed control at 17933.6 g/ha (Crabgrass [6]): 100%
- pest or weed control at 17933.6 g/ha (Cucumber [7]): 100%
- pest or weed control at 17933.6 g/ha (Curled Dock [8]): 100%
- pest or weed control at 17933.6 g/ha (Foxtail [9]): 90%
- pest or weed control at 17933.6 g/ha (Johnsongrass [10]): 90%
- pest or weed control at 17933.6 g/ha (Lambsquarters [11]): 100%
- pest or weed control at 17933.6 g/ha (Nutgrass [12]): 20%
- pest or weed control at 17933.6 g/ha (Pigweed [13]): 100%
- pest or weed control at 17933.6 g/ha (Snapbeans [14]): 100%
- pest or weed control at 17933.6 g/ha (Velvetleaf [15]): 90%
- pest or weed control at 17933.6 g/ha (Wild Oats [16]): 100%
- pest or weed control at 17933.6 g/ha (Yellow Rocket [17]): 100%
- pest or weed control at 8966.8 g/ha (Alfalfa [18]): 100%
- pest or weed control at 8966.8 g/ha (Barnyard Grass [19]): 100%
- pest or weed control at 8966.8 g/ha (Cheatgrass [20]): 30%
- pest or weed control at 8966.8 g/ha (Chickweed [21]): 100%
- plant injury at 8966.8 g/ha (Corn [22]): 30%
- pest or weed control at 8966.8 g/ha (Crabgrass [23]): 100%
- pest or weed control at 8966.8 g/ha (Cucumber [24]): 100%
- pest or weed control at 8966.8 g/ha (Curled Dock [25]): 100%
- pest or weed control at 8966.8 g/ha (Foxtail [26]): 100%
- pest or weed control at 8966.8 g/ha (Johnsongrass [27]): 100%
- pest or weed control at 8966.8 g/ha (Lambsquarters [28]): 100%
- pest or weed control at 8966.8 g/ha (Nutgrass [29]): 30%
- pest or weed control at 8966.8 g/ha (Pigweed [30]): 100%
- pest or weed control at 8966.8 g/ha (Snapbeans [31]): 100%
- pest or weed control at 8966.8 g/ha (Velvetleaf [32]): 100%
- pest or weed control at 8966.8 g/ha (Wild Oats [33]): 20%
- pest or weed control at 8966.8 g/ha (Yellow Rocket [34]): 100%

SMILES: O=c1[nH]c2cccnc2c(=O)n1Cc1ccccc1 [3-benzyl-pyrido[3,2-d]pyrimidine-[2,4(1H,3H)-dione]
- herbicidal activity/control (Alfalfa [1]; 16 pounds per acre): total preemergence activity
- pest or weed control at 17933.6 g/ha (Alfalfa [1]): 100%
- pest or weed control at 17933.6 g/ha (Barnyard Grass [2]): 90%
- herbicidal activity/control (Cheatgrass [3]; 16 pounds per acre): total preemergence activity
- pest or weed control at 17933.6 g/ha (Cheatgrass [3]): 100%
- herbicidal activity/control (Chickweed [4]; 16 pounds per acre): total preemergence activity
- pest or weed control at 17933.6 g/ha (Chickweed [4]): 100%
- herbicidal activity/control (Corn [5]; 16 pounds per acre): no preemergence herbicidal activity
- plant injury at 17933.6 g/ha (Corn [5]): 10%
- herbicidal activity/control (Crabgrass [6]; 16 pounds per acre): total preemergence activity
- pest or weed control at 17933.6 g/ha (Crabgrass [6]): 100%
- herbicidal activity/control (Cucumber [7]; 16 pounds per acre): no preemergence herbicidal activity
- pest or weed control at 17933.6 g/ha (Cucumber [7]): 0%
- herbicidal activity/control (Curled Dock [8]; 16 pounds per acre): total preemergence activity
- pest or weed control at 17933.6 g/ha (Curled Dock [8]): 100%
- pest or weed control at 17933.6 g/ha (Foxtail [9]): 90%
- pest or weed control at 17933.6 g/ha (Johnsongrass [10]): 90%
- herbicidal activity/control (Lambsquarters [11]; 16 pounds per acre): total preemergence activity
- pest or weed control at 17933.6 g/ha (Lambsquarters [11]): 100%
- pest or weed control at 17933.6 g/ha (Nutgrass [12]): 0%
- herbicidal activity/control (Pigweed [13]; 16 pounds per acre): total preemergence activity
- pest or weed control at 17933.6 g/ha (Pigweed [13]): 100%
- herbicidal activity/control (Snapbeans [14]; 16 pounds per acre): no preemergence herbicidal activity
- pest or weed control at 17933.6 g/ha (Snapbeans [14]): 10%
- pest or weed control at 17933.6 g/ha (Velvetleaf [15]): 90%
- pest or weed control at 17933.6 g/ha (Wild Oats [16]): 30%
- pest or weed control at 17933.6 g/ha (Yellow Rocket [17]): 90%
- pest or weed control at 8966.8 g/ha (Alfalfa [18]): 0%
- pest or weed control at 8966.8 g/ha (Barnyard Grass [19]): 0%
- pest or weed control at 8966.8 g/ha (Cheatgrass [20]): 0%
- pest or weed control at 8966.8 g/ha (Chickweed [21]): 100%
- plant injury at 8966.8 g/ha (Corn [22]): 0%
- pest or weed control at 8966.8 g/ha (Crabgrass [23]): 40%
- pest or weed control at 8966.8 g/ha (Cucumber [24]): 10%
- pest or weed control at 8966.8 g/ha (Curled Dock [25]): 0%
- pest or weed control at 8966.8 g/ha (Foxtail [26]): 0%
- pest or weed control at 8966.8 g/ha (Johnsongrass [27]): 0%
- pest or weed control at 8966.8 g/ha (Lambsquarters [28]): 60%
- pest or weed control at 8966.8 g/ha (Nutgrass [29]): 0%
- pest or weed control at 8966.8 g/ha (Pigweed [30]): 100%
- pest or weed control at 8966.8 g/ha (Snapbeans [31]): 0%
- pest or weed control at 8966.8 g/ha (Velvetleaf [32]): 30%
- pest or weed control at 8966.8 g/ha (Wild Oats [33]): 0%
- pest or weed control at 8966.8 g/ha (Yellow Rocket [34]): 70%
